Our source for the IC50, inhibition and Activity values is ChEMBL document CHEMBL2040776, “Docking, synthesis and pharmacological activity of novel urea-derivatives designed as p38 MAPK inhibitors” (Eur J Med Chem, 2012).

The term IC50 denotes the midpoint of a concentration-inhibition curve. Usually inhibition stands for the percentage by which the read-out fell short of the control.

The source made the active and inactive calls. The rule behind the calls is not given here.

A short description of test [1]: Cytotoxicity against BALB/c mouse peritoneal macrophages after 20 hrs by MTT assay. To be noted: Peritoneal macrophage cell. In kind it is cell-based. On the technique in general: Tetrazolium assays rely on reduction of a dye to a coloured formazan, in cell work by metabolically active cells.
Test [2] relates to Rattus norvegicus. The experiment in a line: Antihypernociceptive activity in Wistar rat assessed as inhibition of capsaicin-induced thermal hypernociception by measuring paw withdrawal latency at 100 umol/kg, po administered 1 hr before capsaicin challenge measured after 10 mins. Format: functional, organism-based.
A short description of test [3]: Antiinflammatory activity in BALB/c mouse peritoneal macrophages assessed as inhibition of LPS-induced TNFalpha production treated 1 hr before LPS challenge measured after 24 hrs by ELISA. In kind it is functional, cell-based. The settings on record: Peritoneal macrophage cell. A general note: An ELISA detects its analyte on a solid surface through an enzyme-linked reagent.

In test [4] the test system is Mus musculus. The experiment in a line: Antihypernociceptive activity in po dosed BALB/c mouse methylated bovine serum albumin-induced arthritis model assessed as paw withdrawal latency administered 30 mins before mBSA challenge followed by second dose after 7 hrs by electronic Von Frey method. In kind it is functional, organism-based.
The subject of test [5] is Rattus norvegicus. The experiment in a line: Antiinflammatory activity in Wistar rat assessed as inhibition of carrageenan-induced paw oedema at 100 umol/kg, po after 3 hrs. Format: functional, organism-based.
Test [6] concerns Rattus norvegicus. The experiment in a line: Antiinflammatory activity in Wistar rat assessed as inhibition of carrageenan-induced paw oedema at 100 umol/kg, po after 1 hr. In kind it is functional, organism-based. (The carrageenan paw model is a standard test of acute inflammation.)
Test [7] deals with MAP kinase p38 (Mus musculus, UniProt P47811+O08911+Q9WUI1+Q9Z1B7). The experiment in a line: Inhibition of LPS-induced p38 MAPK activation in BALB/c mouse peritoneal macrophages.
Test [8] in a line: Antiinflammatory activity in BALB/c mouse peritoneal macrophages assessed as inhibition of LPS-induced TNFalpha production at 100 uM treated 1 hr before LPS challenge measured after 24 hrs by ELISA. The settings on record: Peritoneal macrophage cell. In kind it is functional.

On to `CCOC(=O)c1cc2cc3c(cc2nc1NC(=O)Nc1ccccc1)OCO3`, for which, in test [1], the IC50 turned out to be 42.7 µM.

As to `CCOC(=O)c1cc2cc3c(cc2nc1NC(=O)Nc1ccc(Br)cc1)OCO3`, the inhibition entry in test [2] was “Active”.

For the compound `C[S+]([O-])c1ccc(-c2nc(-c3ccc(F)cc3)c(-c3ccncc3)[nH]2)cc1` (stereo not drawn) [SB-203580], in test [3], the IC50 was 0.22 µM. The inhibition entry in test [2] is “Active”.

In the case of `CCOC(=O)c1cc2cc3c(cc2nc1NC(=O)NC1CCCCC1)OCO3`, the Activity entry in test [4] is “Dose-dependent effect”. Also, the inhibition result in test [5], in test [6] and in test [2] was “Active” each time. Also, the IC50 in test [7] was found to be 14 µM; in test [3], 55 µM; in test [1] it was 46.7 µM. Further, the inhibition at 100 µM in test [8] amounted to 50%.

For `CCOC(=O)c1cc2cc3c(cc2nc1NC(=O)Nc1ccc([N+](=O)[O-])cc1)OCO3`, in test [2], the inhibition result was “Active”.
